{"source": "patent EP4785943A1", "about": "“SOLID DISPERSION, PHARMACEUTICAL COMPOSITION, AND PREPARATION METHOD AND USE THEREFOR” (4B Technologies (Beijing) Co., Limited, priority 2023, dated 2025)", "experiment": "Solubility testing in FaSSIF, FeSSIF and SGF (37°C, HPLC of filtrate)", "type": "physicochemical", "settings": "for pH after 2 h: pH of the 2-hour filtrate; for solubility at 0.5 h / solubility at 2 h: thermodynamic from solid, 37°C; for solubility at 0.5 h: read-out: Solubility (mg/mL) 0.5 h; for solubility at 2 h: read-out: Solubility (mg/mL) 2 h", "experimental": "Preparation of FaSSIF stock solution with pH buffer: Approximately 621 mg of NaCl, approximately 345 mg of NaH2PO4, and approximately 41.9 mg of NaOH are weighed into a 100 mL volumetric flask, and dissolved in water to approximately 5 cm below the mark. After cooling and pH adjustment, the resulting mixture is diluted to volume with water, and mixed thoroughly with shaking.\nFeSSIF stock solution: Approximately 866 mg of glacial acetic acid, approximately 406 mg of NaOH, and approximately 1184 mg of NaCl are weighed into a 100 mL volumetric flask, and dissolved in water to approximately 5 cm below the mark. After cooling and pH adjustment, the resulting mixture is diluted to volume with water, and mixed thoroughly with shaking.\nSGF solution: Approximately 202 mg of NaCl and approximately 321 mg of pepsin are weighed into a 100 mL volumetric flask, followed by addition of 700 µL of HCl, and dissolved in water to approximately 5 cm below the mark. After cooling, the resulting mixture is diluted to volume with water, and mixed thoroughly with shaking.\n(§1) FaSSIF solution: FaSSIF stock solution is transferred to a 100 mL volumetric flask, followed by addition of approximately 225 mg of FaSSIF powder, and dissolved in FaSSIF stock solution to approximately 5 cm below the mark. After cooling, the resulting mixture is diluted to volume with FaSSIF stock solution, mixed thoroughly with shaking, and allowed to stand for 2 hours before use.\nas §1, with “FeSSIF” for “FaSSIF”, “1122” for “225”, “solution, and” for “solution,”, “shaking.” for “shaking, and allowed to stand for 2 hours before use.”\nApproximately 20 mg of sample is weighed into a 4 mL vial, followed by addition of 4 mL of different solvents (FaSSIF, FeSSIF, SGF). After the vial is equipped with a magnetic stir bar, the mixture is stirred at 37°C for 2 hours, during which samples are taken at 0.5 hours and 2 hours. After filtration, the sample concentration in the filtrate is determined by HPLC. The pH of the 2-hour filtrate and the crystal form of the remaining solid are also measured.", "note": "Where two headings read alike, the source gives them in different places.", "data": [{"smiles": "COc1cc(Nc2ccc3ncc(N4CCOCC4)nc3c2C#N)ccc1OCc1ccc(C)nc1", "note": "[Compound 1, 6-((3-methoxy-4-((6-methylpyridin-3-yl)methoxy)phenyl)amino)-3-morpholinoquinoxaline-5-carbonitrile]", "values": [{"measurement": "solubility in aqueous media", "setting": "background statement", "result": "poorly soluble"}, {"measurement": "pH after 2 h", "setting": "FaSSIF", "result": 6.58}, {"measurement": "pH after 2 h", "setting": "FeSSIF", "result": 5.02}, {"measurement": "pH after 2 h", "setting": "SGF", "result": 1.28}, {"measurement": "solubility at 0.5 h", "setting": "simulated gastric fluid, SGF", "result": 0.699, "unit": "mg/mL"}, {"measurement": "solubility at 2 h", "setting": "simulated gastric fluid, SGF", "result": 0.524, "unit": "mg/mL"}, {"measurement": "solubility at 0.5 h", "setting": "FaSSIF", "result": 0.00026, "unit": "mg/mL"}, {"measurement": "solubility at 2 h", "setting": "FaSSIF", "result": 0.00026, "unit": "mg/mL"}, {"measurement": "solubility at 0.5 h", "setting": "FeSSIF", "result": 0.00313, "unit": "mg/mL"}, {"measurement": "solubility at 2 h", "setting": "FeSSIF", "result": 0.00293, "unit": "mg/mL"}]}]}
